In data set [1] the target is T1, Amine oxidase [flavin-containing] B (Homo sapiens, UniProt P27338).
T1 sequence (P27338 whole entry): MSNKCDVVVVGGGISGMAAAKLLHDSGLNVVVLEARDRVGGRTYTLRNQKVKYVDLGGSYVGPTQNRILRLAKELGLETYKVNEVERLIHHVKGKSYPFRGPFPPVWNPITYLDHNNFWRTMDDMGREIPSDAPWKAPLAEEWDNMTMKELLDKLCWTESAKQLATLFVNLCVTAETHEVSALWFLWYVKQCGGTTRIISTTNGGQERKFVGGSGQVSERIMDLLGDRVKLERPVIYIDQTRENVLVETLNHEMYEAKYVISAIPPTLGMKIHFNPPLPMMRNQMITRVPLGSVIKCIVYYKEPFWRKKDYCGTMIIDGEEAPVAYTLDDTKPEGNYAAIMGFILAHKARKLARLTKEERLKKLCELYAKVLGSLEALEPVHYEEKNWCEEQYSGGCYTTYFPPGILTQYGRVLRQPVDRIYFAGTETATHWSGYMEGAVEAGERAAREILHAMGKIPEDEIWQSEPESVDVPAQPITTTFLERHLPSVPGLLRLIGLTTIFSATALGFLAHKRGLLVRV
Put plainly: Inhibition of human recombinant MAOB at 1 mM by fluorimetric method. The note with it: 1000 µM.

The target in data set [2] is T2, Amine oxidase [flavin-containing] A (Homo sapiens, UniProt P21397).
T2 sequence (P21397 whole entry): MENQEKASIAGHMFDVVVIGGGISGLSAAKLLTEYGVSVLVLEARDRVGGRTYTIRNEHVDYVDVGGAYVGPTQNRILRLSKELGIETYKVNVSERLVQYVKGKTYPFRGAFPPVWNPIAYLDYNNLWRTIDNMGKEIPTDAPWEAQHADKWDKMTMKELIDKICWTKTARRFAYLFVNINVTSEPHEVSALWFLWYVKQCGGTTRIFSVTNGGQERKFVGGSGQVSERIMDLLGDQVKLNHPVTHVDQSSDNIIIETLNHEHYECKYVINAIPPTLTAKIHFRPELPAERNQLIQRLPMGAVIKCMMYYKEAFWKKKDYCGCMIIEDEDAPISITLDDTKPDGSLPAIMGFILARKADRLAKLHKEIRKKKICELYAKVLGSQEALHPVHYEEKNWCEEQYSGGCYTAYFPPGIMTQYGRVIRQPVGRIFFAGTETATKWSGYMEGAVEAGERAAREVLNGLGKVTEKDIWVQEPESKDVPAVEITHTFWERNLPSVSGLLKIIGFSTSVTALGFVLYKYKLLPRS
Put plainly: Inhibition of human recombinant MAOA by fluorimetric method.

The species named for data set [3] is Homo sapiens. Put plainly: Selectivity ratio of IC50 for human recombinant MAOA to IC50 for human recombinant MAOB.
Data set [4] deals with T1, Amine oxidase [flavin-containing] B. Briefly: Inhibition of human recombinant MAOB at 100 uM by fluorimetric method.
Data set [5] has the same target.
Description: Inhibition of human recombinant MAOB by fluorimetric method
For data set [6] the target is unchanged. Put plainly: Inhibition of human liver MAOB.
The target in data set [7] is T2, Amine oxidase [flavin-containing] A. Briefly: Inhibition of human liver MAOA.

Where only a bound is given, the exact number is not on record here.

For `CC(=O)[C@@]1(O)CC[C@H]2[C@@H]3C[C@H](C)C4=CC(=O)CC[C@]4(C)[C@H]3CC[C@@]21C`, the Activity result in data set [1] is listed as “Not Active”. `COc1c(OCC(C)=O)ccc2cc(NC(C)=O)c(=O)oc12`: the IC50 in data set [2] turned out to be 5.31 µM. For the same compound, the Ratio IC50 in data set [3] is under 0.53. In addition, the Activity entry in data set [4] is “Not Active”. Take `COc1c(O)ccc2c(C)cc(=O)oc12`: the IC50 in data set [2] stood at 80.3 µM. Also, the Activity result in data set [4] is “Not Active”.

`O=c1ccc2cc3c4c(oc3cc2o1)CC4`: the IC50 in data set [2] is 57.9 µM. In addition, the Ratio IC50 in data set [3] was under 0.58. In addition, in data set [4], the Activity entry is recorded as “Not Active”.

On to `O=C1CCCCC1Oc1ccc2ccc(=O)oc2c1` (centres undefined), for which the IC50 in data set [2] turned out to be 43 µM. Also, the Ratio IC50 in data set [3] was under 0.43. Also, the Activity result in data set [4] is “Not Active”. Regarding `Cc1cc(=O)oc2c(C)c3oc4c(c3cc12)CCC4`, the IC50 in data set [2] was determined as 32.8 µM; in data set [5] it was 73.2 µM. Besides, in data set [3], the Ratio IC50 is 0.45. In the same order, the values of `COc1c2ccc(=O)oc2cc2occ(C)c12` are 255 µM, 260 µM and 0.98.

For the compound `CC(=O)COc1ccc2c(oc(=O)c3ccccc32)c1C`, the IC50 in data set [2] was found to be 2.56 µM; in data set [5], 28.1 µM. In addition, the Ratio IC50 in data set [3] came out at 0.091. As for `COC(=O)[C@H](Cc1cnc[nH]1)NC(=O)Cc1ccc(N(CCCl)CCCl)cc1`, the Activity entry in data set [4] and in data set [6] was “Not Active” each time. `O=NN(CCCl)C(=O)NC[C@@H](O)[C@H](O)CN(N=O)C(=O)NCCCl`: the Activity entry in data set [1] is listed as “Not Active”.

Consider `O=c1oc2cc(O)ccc2c2c1CCC2`, for which the IC50 in data set [2] was determined as 48.2 µM. The Ratio IC50 in data set [3] is under 0.48. In addition, the Activity entry in data set [4] was “Not Active”.

Regarding `COc1c2occc2cc2cc(N)c(=O)oc12`, the IC50 in data set [2] came out at 12.2 µM; in data set [5], 16.5 µM. In addition, the Ratio IC50 in data set [3] was found to be 0.74. `Cc1c(O)ccc2c3c(c(=O)oc12)CCCC3`: in data set [2], the IC50 is 60.1 µM. For the same compound, in data set [3], the Ratio IC50 was under 0.6. In addition, in data set [4], the Activity result is given as “Not Active”.

Consider `CS(=O)(=O)OC[C@@H]1O[C@H]1[C@@H]1O[C@H]1COS(C)(=O)=O`, for which the Activity entry in data set [1] is recorded as “Not Active”. Consider `COc1c(O)ccc2c3c(c(=O)oc12)CCC3`, for which, in data set [2], the IC50 came out at 63.5 µM. The Ratio IC50 in data set [3] is under 0.63. Besides, in data set [4], the Activity entry is reported as “Not Active”. Regarding `COc1c(OCC(C)=O)ccc2c1oc(=O)c1ccccc12`, the IC50 came to 11.9 µM in data set [2] and 9.36 µM in data set [5]. For the same compound, the Ratio IC50 in data set [3] was found to be 1.27. For the compound `C=C1[C@@H](C)[C@H]2[C@H](Cc3ccccc3)NC(=O)[C@]23OC(=O)/C=C/[C@H](O)CCC[C@@H](C)C/C=C/[C@H]3[C@@H]1O` [CYTOCHALASIN B], the Activity result in data set [1] is “Not Active”. As for `CN(C)/N=N/c1[nH]cnc1C(N)=O` [DACARBAZINE], the Activity result in data set [1] and in data set [7] was “Not Active” each time. On to `NS(=O)(=O)c1cc(Cl)c(Cl)c(S(N)(=O)=O)c1` [DICHLORPHENAMIDE], for which the Activity result in data set [1] was “Not Active”. In the case of `C1OC1CN1CCC(C2CCN(CC3CO3)CC2)CC1` (centres undefined) [EPIPROPIDINE], the Activity entry in data set [1] is reported as “Not Active”. Consider `CN1C[C@H](C(=O)N[C@]2(C)O[C@@]3(O)[C@@H]4CCCN4C(=O)[C@H](Cc4ccccc4)N3C2=O)C=C2c3cccc4[nH]cc(c34)C[C@H]21` [ERGOTAMINE], for which, in data set [1], the Activity entry is “Not Active”. For the compound `CCc1cc(C(N)=S)ccn1` [ETHIONAMIDE], the Activity result in data set [4] and in data set [6] was “Not Active” each time. Turning to `CCC1(C)CC(=O)NC1=O` (centres undefined) [ETHOSUXIMIDE], in data set [4], the Activity entry is “Not Active”. In the case of `O=c1[nH]c(=O)n([C@H]2C[C@H](O)[C@@H](CO)O2)cc1F` [FLOXURIDINE], the Activity entry in data set [4] and in data set [6] was “Not Active” each time.

Turning to `CC1(C)O[C@@H]2C[C@H]3[C@@H]4C[C@H](F)C5=CC(=O)C=C[C@]5(C)[C@@]4(Cl)[C@@H](Cl)C[C@]3(C)[C@]2(C(=O)CO)O1` [FLUCLORONIDE], the Activity result in data set [4] and in data set [6] was “Not Active” throughout. For the compound `N=c1nc2n(cc1F)[C@@H]1O[C@H](CO)[C@@H](O)[C@@H]1O2` [FLUROCITABINE], in data set [1], the Activity entry is given as “Not Active”. Turning to `NC(N)=N/N=C/c1ccc([N+](=O)[O-])o1` [FURAGUANIDINE], the Activity result in data set [4] and in data set [6] was “Not Active” in each case.

On to `O=[N+]([O-])c1ccc(/C=N/n2cnnc2)o1` [FURAZONAL], for which the Activity entry in data set [4] and in data set [6] was “Not Active” in each case.

In the case of `O=CN(O)CC(=O)O` [HADACIDIN], the Activity entry in data set [1] is on record as “Not Active”. `CC[C@H](c1ccc(OP(=O)(O)O)cc1)[C@@H](CC)c1ccc(OP(=O)(O)O)cc1` [HEXESTROL DIPHOSPHATE]: the Activity entry in data set [4] and in data set [6] was “Not Active” in each case. As to `CCCOC1=C(N2CC2)C(=O)C(OCCC)=C(N2CC2)C1=O` [INPROQUONE], the Activity result in data set [1] is given as “Not Active”.

`O=[N+]([O-])O[C@@H]1CO[C@H]2[C@@H]1OC[C@@H]2O` [ISOSORBIDE MONONITRATE]: the Activity entry in data set [4] and in data set [6] was “Not Active” each time. Regarding `N[C@@H](Cc1ccc(O)c(O)c1)C(=O)O` [LEVODOPA], in data set [1], the Activity entry is reported as “Not Active”. Same read-out and setting: to `CCN(CC)CC(=O)Nc1c(C)cccc1C` [LIDOCAINE] belongs “Not Active”. Consider `O=NN(CCCl)C(=O)NC1CCCCC1` [LOMUSTINE], for which the Activity result in data set [4] and in data set [6] was “Not Active” each time. As for `O=C(Cc1ccc(N(CCCl)CCCl)cc1)NC[C@H](NC(=O)Cc1ccc(N(CCCl)CCCl)cc1)C(=O)O` [LONIN 4], the Activity result in data set [4] and in data set [6] was “Not Active” each time.

Consider `C[C@@H]1O[C@@H](O[C@H]2C[C@](O)(C(=O)CO)Cc3c(O)c4c(c(O)c32)C(=O)c2ccccc2C4=O)C[C@H](N)[C@@H]1O` [MEDORUBICIN], for which the Activity entry in data set [1] was “Not Active”.

In the case of `Cc1cccc(C)c1NC(=O)C1CCCCN1C` (centres undefined) [MEPIVACAINE], the Activity entry in data set [4] and in data set [6] was “Not Active” in each case.

With `CCCC(C)(COC(N)=O)COC(N)=O` [MEPROBAMATE], the Activity entry in data set [4] and in data set [6] was “Not Active” each time. Consider `CN(Cc1cnc2nc(N)nc(N)c2n1)c1ccc(C(=O)N[C@@H](CCC(=O)O)C(=O)O)cc1` [METHOTREXATE], for which, in data set [1], the Activity result is “Not Active”. On to `COC(F)(F)C(Cl)Cl` [METHOXYFLURANE], for which the Activity result in data set [1] is listed as “Not Active”. As to `CC(=O)Nc1c(I)c(C(=O)N[C@H]2C(O)O[C@H](CO)[C@@H](O)[C@@H]2O)c(I)c(N(C)C(C)=O)c1I` (some centres undefined) [METRIZAMIDE], the Activity entry in data set [4] and in data set [6] was “Not Active” throughout.

With `Cc1ncc([N+](=O)[O-])n1CCO` [METRONIDAZOLE], the Activity result in data set [4] and in data set [6] was “Not Active” in each case. With `O=C(NCCN1CCOCC1)c1ccc(Cl)cc1` [MOCLOBEMIDE], in data set [1], the Activity entry was “Not Active”. In the case of `Clc1sc(Cl)c(Cl)c1Cl` [TETRACHLOROTHIOPHENE], the Activity result in data set [7] and in data set [6] was “Not Active” each time.

The values are drawn from ChEMBL document CHEMBL1152129, “Quantitative structure-activity relationship and complex network approach to monoamine oxidase A and B inhibitors” (J Med Chem, 2008).
